Test results taken from patent US7285619B2, “Echinocandin derivatives, their method of preparation and their application as anti-fungal agents” (Aventis Pharma S.A., priority 1997, dated 2007).

tested on: glucane Synthesis of Candida albicans; assay: Inhibition of the glucane synthesis of Candida albicans (membrane preparation, 14C-UDP glucose incorporation); format: biochemical; conditions: purified Candida albicans membranes, 25° C., 1 hour, result in words
Protocol: Tablets have been prepared containing: • The product of example 14 . . . 150 mg • Excipient q.s.p. . . . 1 g (Detail of the excipient: starch, talc, magnesium stearate). Pharmacological Study A—Inhibition of the glucane Synthesis of Candida albicans.
The membranes of Candida albicans are purified according to the process described by Tang and al Antimicrob. Agents Chemother 35, 99-103, 1991. 22.5 μg of membrane proteins are incubated in a mixture of 2 Mm of 14C-UDP glucose (specific activity=0.34 mCi./mmol, 50 μg of α-amylase, 1 Mm of dithiotreitol (DTT), 1 Mm EDTA, 100 Mm NaF, 7 μM of GTP-γ-S, 1M of sucrose and 5 oMm OF Ttris-HCL (pH 7.8) in a volume of 100 μl. The medium is incubated at 25° C. for 1 hour and the reaction terminated by addition of TCA to a final concentration of 5%. The reaction medium is transferred onto a pre-humidified glass fibre filter. The filter is washed, dried and its radioactivity is counted.
Mulundocandin is used as positive control.
The control of the medium is carried out with the same quantity of DMSO 1%.

Molecule | activity in the test of inhibition of the glucane synthesis of Candida albicans
CCCCCCCCOc1ccc(-c2ccc(C(=O)NC3CC(NCCN)CNC(=O)C4C(O)C(C)CN4C(=O)C(CO)NC(=O)C(C(O)Cc4ccc(O)cc4)NC(=O)C4CC(O)CN4C(=O)C(C(C)O)NC3=O)cc2)cc1.O=C(O)C(F)(F)F (single isomer, unassigned; isomer a) [Example 14, Trifluoroacetate of 1-[4-[(2-aminoethyl)amino]N2-[[4′-(octyloxy)[1.1′-biphenyl]-4-yl]carbonyl]-L-ornithine]4-[4-(4-hydroxyphenyl)-L-threonine]-5-L Serine Echinocandin B (Isomer A)] | good activity
(±) Trifluoroacetate of 1-[4-[(aminoiminomethyl) Hydrazono]-N2-(12-methyl-1-oxotetradecyl)-L-ornithine]4-[4-(4-hydroxyphenyl)-L-threonine]-5-L Serine Echinocandin B [Example 11] | good activity
Trifluoroacetate of 1-[4-[(2-aminoethyl)amino]-N2-(12-methyl-1-oxotetradecyl)-L-ornithine]4-[4-(4-hydroxyphenyl)-L-threonine]-5-L Serine Echinocandin B (Isomer A and Isomer B) [Example 9] | good activity
